Where two headings read alike, the source gives them in different places.
Legend:
Format in all cases: in vivo
[1] = test system: Musca domestica; assay: Pesticidal test against Musca domestica, filter paper with sucrose bait (Test Example 6)
Experimental: Ten female adults of Musca domestics (house fly) were set free in the polyethylene cup, which was then kept covered. After 24 hours, their survival was examined to determine the mortality.

[2] = test system: Leptinotarsa decemlineata; assay: Pesticidal test against Leptinotarsa decemlineata, eggplant leaf dip (Test Example 5); conditions: foliar, 120 h, eggplant leaf immersed 1 minute, second-instar larvae, 5th day after release, read-out: rate of dead or moribund pests
Experimental: A leaf of eggplant was immersed in the test liquid, which had been prepared as described above, for 1 minute. After the test liquid treated the leaf of eggplant was dried with a paper towel, the leaf of eggplant was placed in a polyethylene cup of 3 cm in diameter. One second-instar larvae of Leptinotarsa decemlineata (Colorado potato beetle) were set free in the polyethylene cup, which was then kept covered and left in a greenhouse at 25° C. This test was done ten times for one compound. On the 5th day after the release of Leptinotarsa decemlineata, the number of dead pests and moribund pests was examined.

[3] = test system: Eysarcoris lewisi; assay: Pesticidal test against Eysarcoris lewisi, treated peanut seeds (Test Example 4); conditions: 168 h, peanut seeds immersed 1 minute, adults, 7th day after release, read-out: rate of dead or moribund pests
Experimental: Then, 3 to 5 seeds of peanut were immersed in the test liquid, which had been prepared as described above, for 1 minute. After the test liquid treated the seeds of peanut was dried with a paper towel, a filter paper moistened with 1 ml of water was placed on a bottom of polyethylene cup and then the seeds of peanut was placed on it. Six to eight adults of Eysarcoris lewisi were set free in the polyethylene cup, which was then kept covered and left in a greenhouse at 25° C. On the 7th day after the release of Eysarcoris lewisi, the number of dead pests and moribund pests was examined.

[4] = test system: Ctenocephalides felis; assay: Pesticidal test against Ctenocephalides felis, treated filter paper (Test Example 9); conditions: 200 mg/m^2 on filter paper (acetone solution), twenty adults, after 24 hours
Experimental: Each of the compound 8, 15, 19, 21 and 34 was dissolved in acetone to give a 0.2 ml solution of 0.114% w/w, which was uniformly treated on a filter paper having 3.8cm in diameter, and air-dried. The amount of active ingredient was 200 mg/m^2. The filter paper was filled in a lid of a 200 ml glass bottle. Twenty adult Ctenocephalides felis (cat flea) were released in the glass bottle, which was followed by covering with the lid. The glass bottle was upset for making the fleas contact with the filter paper. After 24 hours, the mortality was examined.

[5] = 500 ppm, 0.7 ml on filter paper, ten female adults, after 24 hours, read-out: mortality

| SMILES | mortality at 500 ppm [1, 5] | other results |
| --- | --- | --- |
| N#CC(C#N)(CCC(F)=C(F)F)Cc1ccccc1 [Compound 4, 2-benzyl-2-(3,4,4-trifluoro-3-butenyl)malononitrile] | 100% |  |
| N#CC(C#N)(Cc1ccc(OC(F)(F)F)cc1)CC(F)(F)C(F)(F)F [Compound 5, 2-(2,2,3,3,3-pentafluoropropyl)-2-(4-(trifluoromethoxy)benzyl)malononitrile] | 100% | pest or weed control at 1.6 ppm [2]: > 80% |
| N#CC(C#N)(CCC(F)(F)F)Cc1c(Cl)cc(C(F)(F)F)cc1Cl [Compound 7, 2-(2,6-dichloro-4-(trifluoromethyl)benzyl)-2-(3,3,3-trifluoropropyl)malononitrile] | 100% |  |
| N#CC(C#N)(CCC(F)(F)F)Cc1ccc(Br)cc1 [Compound 9, 2-(4-bromobenzyl)-2-(3,3,3-trifluoropropyl)malononitrile] | 100% | pest or weed control at 100 ppm [3]: 100% |
| N#CC(C#N)(CCC(F)(F)C(F)(F)F)Cc1ccc(OC(F)(F)F)cc1 [Compound 10, 2-(3,3,4,4,4-pentafluorobutyl)-2-(4-(trifluoromethoxy)benzyl)malononitrile] | 100% | pest or weed control at 1.6 ppm [2]: > 80%; pest or weed control at 100 ppm [3]: 100% |
| N#CC(C#N)(CCC(F)F)Cc1ccc(C(F)(F)F)cc1 [Compound 11, 2-(3,3-difluoropropyl)-2-(4-(trifluoromethyl)benzyl)malononitrile] | 100% | pest or weed control at 100 ppm [3]: 100% |
| N#CC(C#N)(CCC(F)(F)F)Cc1ccccc1 [Compound 12, 2-benzyl-2-(3,3,3-trifluoropropyl)malononitrile] | 100% |  |
| N#CC(C#N)(CCC(F)(F)F)Cc1ccc(SC(F)(F)F)cc1 [Compound 13, 2-(4-(trifluoromethylthio)benzyl)-2-(3,3,3-trifluoropropyl)malononitrile] | 100% |  |
| N#CC(C#N)(CCCF)Cc1ccc(C(F)(F)F)cc1 [Compound 14, 2-(3-fluoropropyl)-2-(4-(trifluoromethyl)benzyl)malononitrile] | 100% | pest or weed control at 100 ppm [3]: 100% |
| N#CC(C#N)(CCC(F)(F)F)Cc1ccc(F)cc1 [Compound 16, 2-(4-fluorobenzyl)-2-(3,3,3-trifluoropropyl)malononitrile] | 100% |  |
| N#CC(C#N)(CCC(F)(F)F)Cc1ccc([N+](=O)[O-])cc1 [Compound 18, 2-(4-nitrobenzyl)-2-(3,3,3-trifluoropropyl)malononitrile] | 100% |  |
| N#CC(C#N)(CCC(F)(F)F)Cc1ccc(F)c(F)c1 [Compound 19, 2-(3,4-difluorobenzyl)-2-(3,3,3-trifluoropropyl)malononitrile] | 100% | mortality at 200 mg/m2 [4]: 100% |
| N#Cc1ccc(CC(C#N)(C#N)CCC(F)(F)F)cc1 [Compound 22, 2-(4-cyanobenzyl)-2-(3,3,3-trifluoropropyl)malononitrile] | 100% | pest or weed control at 100 ppm [3]: 100% |
| N#CC(C#N)(CCC(F)(F)C(F)(F)F)Cc1ccc(Cl)cc1 [Compound 23, 2-(4-chlorobenzyl)-2-(3,3,4,4,4-pentafluorobutyl)malononitrile] | 100% | pest or weed control at 100 ppm [3]: 100% |
| N#CC(C#N)(CCC(F)(F)F)Cc1ccc(I)cc1 [Compound 26, 2-(4-iodobenzyl)-2-(3,3,3-trifluoropropyl)malononitrile] | 100% |  |
| C=Cc1ccc(CC(C#N)(C#N)CCC(F)(F)F)cc1 [Compound 27, 2-(3,3,3-trifluoropropyl)-2-(4-vinylbenzyl)malononitrile] | 100% |  |
| CCc1ccc(CC(C#N)(C#N)CCC(F)(F)F)cc1 [Compound 31, 2-(4-ethylbenzyl)-2-(3,3,3-trifluoropropyl)malononitrile] | 100% |  |
| CC(C)(C)c1ccc(CC(C#N)(C#N)CCC(F)(F)F)cc1 [Compound 33, 2-(4-t-butylbenzyl)-2-(3,3,3-trifluoropropyl)malononitrile] | 100% |  |
| CC(C)c1ccc(CC(C#N)(C#N)CCC(F)(F)F)cc1 [Compound 35, 2-(4-isopropylbenzyl)-2-(3,3,3-trifluoropropyl)malononitrile] | 100% |  |
| N#CC(C#N)(CCC(F)(F)F)Cc1ccc(C(F)(F)F)c(Cl)c1 [Compound 39, 2-(3-chloro-4-(trifluoromethyl)benzyl)-2-(3,3,3-trifluoropropyl)malononitrile] | 100% | pest or weed control at 100 ppm [3]: 100% |

| SMILES | mortality at 500 ppm [1, 5] | other results |
| --- | --- | --- |
| CC(c1ccc(Cl)cc1)C(C#N)(C#N)CCC(F)(F)F (centres unmarked) [Compound 42, 2-(1-(4-chlorophenyl)ethyl)-2-(3,3,3-trifluoropropyl)malononitrile] | 100% |  |
| N#CC(C#N)(CCC(F)(F)F)Cc1ccc(F)cc1Cl [Compound 44, 2-(2-chloro-4-fluorobenzyl)-2-(3,3,3-trifluoropropyl)malononitrile] | 100% |  |
| Cc1cc(CC(C#N)(C#N)CCC(F)(F)F)ccc1[N+](=O)[O-] [Compound 45, 2-(3-methyl-4-nitrobenzyl)-2-(3,3,3-trifluoropropyl)malononitrile] | 100% |  |
| N#Cc1ccc(CC(C#N)(C#N)CCF)cc1 [Compound 46, 2-(4-cyanobenzyl)-2-(2-fluoroethyl)malononitrile] | 100% |  |
| N#CC(C#N)(CCC(F)=C(F)F)Cc1ccc(OC(F)(F)F)cc1 [Compound 49, 2-(3,4,4-trifluoro-3-butenyl)-2-(4-(trifluoromethoxy)benzyl)malononitrile] | 100% |  |
| N#CC(C#N)(CCC(F)(F)F)Cc1ccc(OC(F)(F)F)cc1 [Compound 50, 2-(3,3,3-trifluoropropyl)-2-(4-(trifluoromethoxy)benzyl)malononitrile] | 100% | pest or weed control at 1.6 ppm [2]: > 80%; pest or weed control at 100 ppm [3]: 100% |
| CC(c1ccc(Cl)cc1)C(C#N)(C#N)CCF (centres unmarked) [Compound 53, 2-(1-(4-chlorophenyl)ethyl)-2-(2-fluoroethyl)malononitrile] | 100% |  |
| N#CC(C#N)(CCC(F)=C(F)F)Cc1ccc(SC(F)(F)F)cc1 [Compound 54, 2-(3,4,4-trifluoro-3-butenyl)-2-(4-(trifluoromethylthio)benzyl)malononitrile] | 100% |  |
| N#CC(C#N)(CCF)Cc1ccc(F)cc1 [Compound 59, 2-(4-fluorobenzyl)-2-(2-fluoroethyl)malononitrile] | 100% |  |
| N#CC(C#N)(CCC(F)(F)F)Cc1cc(F)cc(F)c1 [Compound 71, 2-(3,5-difluorobenzyl)-2-(3,3,3-trifluoropropyl)malononitrile] | 100% |  |
| N#CC(C#N)(Cc1ccc(C(F)(F)F)cc1)CC(F)(F)F [Compound 72, 2-(2,2,2-trifluoroethyl)-2-(4-(trifluoromethyl)benzyl)malononitrile] | 100% |  |
| N#CC(C#N)(CCC(F)=C(F)F)Cc1ccc(C(F)(F)F)cc1 [Compound 73, 2-(3,4,4-trifluoro-3-butenyl)-2-(4-(trifluoromethyl)benzyl)malononitrile] | 100% |  |
| N#CC(C#N)(CCC(F)(F)F)Cc1ccc(C(F)(F)F)cc1 [Compound 74, 2-(3,3,3-trifluoropropyl)-2-(4-(trifluoromethyl)benzyl)malononitrile] | 100% | pest or weed control at 1.6 ppm [2]: > 80%; pest or weed control at 100 ppm [3]: 100% |
| N#CC(C#N)(Cc1ccc(C(F)(F)F)cc1)CC(F)(F)C(F)(F)F [Compound 76, 2-(2,2,3,3,3-pentafluoropropyl)-2-(4-(trifluoromethyl)benzyl)malononitrile] | 100% | pest or weed control at 1.6 ppm [2]: > 80%; pest or weed control at 100 ppm [3]: 100% |
| N#CC(C#N)(Cc1ccc(C(F)(F)F)cc1)CC(F)(F)C(F)(F)C(F)(F)F [Compound 77, 2-(2,2,3,3,4,4,4-heptafluorobutyl)-2-(4-(trifluoromethyl)benzyl)malononitrile] |  | mortality at 500 ppm ([1]; 24 h): 100% |
| N#CC(C#N)(CCCC(F)(F)F)Cc1ccc(C(F)(F)F)cc1 [Compound 78, 2-(4,4,4-trifluorobutyl)-2-(4-(trifluoromethyl)benzyl)malononitrile] | 100% | pest or weed control at 1.6 ppm [2]: > 80% |
| N#CC(C#N)(CCC(F)(F)F)Cc1cccc(F)c1 [Compound 79, 2-(3-fluorobenzyl)-2-(3,3,3-trifluoropropyl)malononitrile] | 100% |  |
| N#CC(C#N)(CCC(F)(F)F)Cc1cccc(OCc2ccccc2)c1 [Compound 88, 2-(3-(benzyloxy)benzyl)-2-(3,3,3-trifluoropropyl)malononitrile] | 100% |  |
| COc1ccc(CC(C#N)(C#N)CCC(F)(F)F)cc1 [Compound 89, 2-(4-methoxybenzyl)-2-(3,3,3-trifluoropropyl)malononitrile] | 100% |  |

From patent US7402691B2, “Malononitrile compounds and their use as pesticides” (Sumitomo Chemical Company, Limited, priority 2001, dated 2008)
